According to patent US20130296539A1, “MAGNETIC RESONANCE IMAGING AGENTS FOR CALCIFICATION” (priority 2012, published 2013):

Legend:
[1] = In-vitro UTE and GRE MRI of HA crystals bound by contrast agent; conditions: short incubation with HA crystals in PBS, UTE sequence TR=200 msec, TE=100 μsec
Experimental: (§1) MRI can be performed on a 1.5 T GE Signa clinical scanner equipped with a custom low-pass birdcage coil (10 cm length, 6 cm diameter). The custom UTE sequence is based on previous work in the field {Irarrazabal, 1995; Song, 1998}.
1 mM of [Gd^3+-DOTA]-Thr-Pam-Na is added to 5 mg of HA crystals in 50 μL PBS (pH 7.4) and is vortexed for 1 h at RT in a 1.5 mL Eppendorf tube. 5 mg HA in 1 mM of [Gd^3+-DOTA]-Thr and 50 μL PBS is used as a control. MRI, pre- and post-washing with 4×500 μL PBS, are acquired using an UTE sequence (TR=200 msec, TE=100 μsec) or conventional GRE sequence (TR=200 msec, TE=1.8 msec). Other acquisition parameters includes FOV=6 cm, slice thickness=5 mm, matrix size=256×256, NEX=4.

[2] = Contrast agent concentration and TR dependence of UTE MRI signals; conditions: 5 mg HA, 1 h at RT, washed with PBS, UTE MRI TE=100 μsec
Experimental: as §1
5 mg HA is placed in 1.5 mL plastic Eppendorf tubes, then 0, 0.1, 1, 10, or 100 μM [Gd^3+-DOTA]-Thr-Pam-Na in 50 μL PBS is added to each. After vortexing 1 h at RT, the crystals are washed with 4×500 μL PBS and UTE MRI acquisition is performed using a fixed TE=100 μsec and varying TR of 17, 50, 200, 500 msec. Other acquisition parameters includes FOV=11 cm, slice thickness=10 mm, matrix size=256×256, NEX=2.

[3] = Quantitation of calcium salt specificity by UTE MRI; conditions: 10 μM in PBS, 1 h at RT, UTE MRI before and after washing crystals
Experimental: as §1
5 mg of HA or the phosphate, oxalate, carbonate, or pyrophosphate salts of calcium is placed in 1.5 ml Eppendorf tube and is incubated with 10 μM [Gd^3+-DOTA]-Thr-Pam-Na in 50 μL PBS for 1 h at RT with continuous vortexing. UTE MRI acquisition is performed pre- and post-washing with 4×500 μL PBS using TR=200 msec and TE=100 μsec. Other acquisition parameters includes FOV=9 cm, slice thickness=10 mm, matrix size=256×256, NEX=2.

[4] = In-vivo UTE MRI of subcutaneously implanted HA crystals; conditions: mice, intravenous injection, minimum of 4 h of clearance; compared with microCT
Experimental: as §1
50 mg of HA crystals is taken in 300 μL PBS, is implanted subcutaneously at right flank of anesthetized mice. UTE MRI is taken after implantation of HA crystal using TR/TE=200 msec/100 μsec, FOV=6 cm, slice thickness=5 mm, matrix size=256×256. 4 μmol of [Gd^3+-DOTA]-Thr-Pam-Na in 300 μL saline is injected intravenously. After 4 h of clearance, an UTE MRI is taken with same parameters.

## [Gd^3+-DOTA]-Thr-Pam-Na
[1]
  Detection of HA crystals by UTE MRI: able to detect HA crystals with high sensitivity
[2]
  Lowest incubation concentration resulting in detectable signal enhancement: 1 µM
[3]
  Specificity for HA over other calcium salts: more than three fold higher specificity for HA over other calcium salts
[4]
  In-vivo detection of HA crystals by UTE MRI: UTE MRI provides a sensitive detection of HA crystals in-vivo
